Assay results reported in PubChem BioAssay (NCI).
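Five compound concentrations were applied to cells in 96-well plates for 48 hours; endpoints were derived by simple linear interpolation of the resulting dose-response curve. GI50 marks 50% less growth. Definition used: TGI = concentration required for complete inhibition of growth.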

What was measured:
Assay in all cases: NCI-60 cell line screen, 48 h
[1] = test system: OVCAR-4 ovarian
[2] = test system: COLO 205 colon
[3] = test system: LOX IMVI melanoma
[4] = test system: KM12 colon
[5] = test system: IGROV1 ovarian
[6] = test system: UO-31 renal
[7] = test system: SK-OV-3 ovarian
[8] = test system: PC-3 prostate
[9] = test system: SNB-75 CNS
[10] = test system: OVCAR-8 ovarian

Question: What does the source list for `NC(CCSCCF)C(=O)O` (stereo not drawn)?
Answer: TGI [1]: > 100 µM; TGI [2]: > 100 µM; TGI [3]: > 100 µM; TGI [4]: > 100 µM; TGI [5]: > 100 µM; TGI [6]: > 100 µM; TGI [7]: > 100 µM

Question: Which results are given for `C=CC(=O)N1CCC(CNc2ncnc(N)c2-c2ccc(Oc3ccccc3)cc2)CC1`?
Answer: GI50 [1]: 24.1 µM; TGI [1]: > 100 µM; GI50 [8]: 24.9 µM; TGI [8]: > 100 µM; GI50 [3]: 16.3 µM; TGI [3]: 33.2 µM; GI50 [4]: 28.7 µM; TGI [4]: > 100 µM; GI50 [9]: 13.4 µM; TGI [9]: 58.9 µM; GI50 [5]: 8.51 µM; TGI [5]: 35.8 µM; GI50 [6]: 8.63 µM; TGI [6]: 49.2 µM; GI50 [10]: 27.5 µM; TGI [10]: > 100 µM; GI50 [7]: 18 µM; TGI [7]: 70 µM

Question: How did the TGI [1] turn out when `Cc1cccc(/C=N/N=C(\N)NO)n1` was run?
Answer: > 100 µM

Question: And the TGI [2]?
Answer: > 100 µM

Question: And the TGI [3]?
Answer: 52.8 µM

Question: What about the TGI [4] of the same compound?
Answer: > 100 µM

Question: And the TGI [9]?
Answer: 80.8 µM

Question: And the TGI [5]?
Answer: > 100 µM

Question: And the TGI [10]?
Answer: > 100 µM

Question: And the TGI [7]?
Answer: > 100 µM

Question: How did the TGI [1] turn out when `CC(C(=O)c1ccc(O)cc1)C1(O)C(=O)Nc2c(Cl)cc(Cl)cc21` (stereo not drawn) was run?
Answer: 50.5 µM

Question: What about the TGI [2] of the same compound?
Answer: > 100 µM

Question: And the TGI [3]?
Answer: > 67.8 µM

Question: What about the TGI [4] of the same compound?
Answer: > 100 µM

Question: And the TGI [9]?
Answer: > 100 µM

Question: And the TGI [5]?
Answer: > 100 µM

Question: What about the TGI [6] of the same compound?
Answer: > 100 µM

Question: And the TGI [10]?
Answer: > 100 µM

Question: And the TGI [7]?
Answer: > 100 µM

Question: Which results are given for `COC(=O)C1OC(SCCN)C(O)C(O)C1O` (stereo not drawn)?
Answer: TGI [1]: > 100 µM; TGI [8]: > 100 µM; TGI [2]: > 100 µM; TGI [3]: > 100 µM; TGI [4]: > 100 µM; TGI [9]: > 100 µM; TGI [5]: > 100 µM; TGI [10]: > 100 µM; TGI [7]: > 100 µM

Question: With `COC(=O)c1ccc(N/C=C(/C#N)c2ccsc2)cc1` as the compound, how does the TGI [2] read?
Answer: > 100 µM

Question: What about the TGI [4] of the same compound?
Answer: 32.2 µM

Question: And the TGI [9]?
Answer: 18.9 µM

Question: And the TGI [5]?
Answer: 65.2 µM

Question: What about the TGI [6] of the same compound?
Answer: 32.5 µM

Question: And the TGI [10]?
Answer: 19.5 µM

Question: Which TGI [1] does the source give for `COC(=O)CCC(=O)Nc1cc(C)ccc1C` here?
Answer: > 100 µM

Question: What about the TGI [2] of the same compound?
Answer: > 100 µM

Question: And the TGI [3]?
Answer: > 100 µM

Question: And the TGI [4]?
Answer: > 100 µM

Question: What about the TGI [9] of the same compound?
Answer: > 100 µM

Question: What about the TGI [5] of the same compound?
Answer: > 100 µM

Question: What about the TGI [6] of the same compound?
Answer: > 100 µM

Question: And the TGI [10]?
Answer: > 100 µM

Question: And the TGI [7]?
Answer: > 100 µM

Question: What does the source list for `C=CC(=O)OCCCS(=O)(=O)[O-].C=CC(=O)OCCCS(=O)(=O)[O-].NC1CCCCC1N.[Pt+4]`?
Answer: GI50 [1]: > 25 µM; TGI [1]: > 25 µM; GI50 [2]: > 25 µM; TGI [2]: > 25 µM; GI50 [3]: > 25 µM; TGI [3]: > 25 µM; GI50 [4]: > 25 µM; TGI [4]: > 25 µM; GI50 [9]: > 25 µM; TGI [9]: > 25 µM; GI50 [5]: > 25 µM; TGI [5]: > 25 µM; GI50 [6]: > 25 µM; TGI [6]: > 25 µM; GI50 [10]: > 25 µM; TGI [10]: > 25 µM; GI50 [7]: > 25 µM; TGI [7]: > 25 µM

Question: `Nc1ncc(-c2ccc3ncnc(N4CCc5cc(F)c(Cl)cc54)c3c2)cc1C(F)(F)F` was tested. Which GI50 [1] did it give?
Answer: 1.74 µM

Question: And the TGI [1]?
Answer: 27.9 µM

Question: What about the GI50 [8] of the same compound?
Answer: 1.44 µM

Question: And the TGI [8]?
Answer: > 100 µM

Question: And the GI50 [4]?
Answer: 2.47 µM

Question: And the TGI [4]?
Answer: > 100 µM

Question: What about the GI50 [9] of the same compound?
Answer: 0.308 µM

Question: What about the TGI [9] of the same compound?
Answer: 3.59 µM

Question: What about the GI50 [6] of the same compound?
Answer: 0.33 µM

Question: What about the TGI [6] of the same compound?
Answer: > 100 µM

Question: And the GI50 [10]?
Answer: 2.34 µM

Question: What about the TGI [10] of the same compound?
Answer: > 100 µM

Question: What about the GI50 [7] of the same compound?
Answer: 2.15 µM

Question: And the TGI [7]?
Answer: > 100 µM

Question: What does the source list for `CCCCCCCCCCCc1cc(=O)c2c(O)cccc2o1`?
Answer: TGI [1]: > 100 µM; TGI [2]: > 100 µM; TGI [3]: > 100 µM; TGI [4]: > 100 µM; TGI [9]: > 100 µM; TGI [5]: > 100 µM; TGI [6]: > 100 µM; TGI [10]: > 100 µM; TGI [7]: > 100 µM

Question: Which results are given for `COc1ccccc1NC(=O)C1=C(C)NC(C)=C(C(=O)Nc2ccccc2OC)C1c1ccc(C2C(C(=O)Nc3ccccc3OC)=C(C)NC(C)=C2C(=O)Nc2ccccc2OC)cc1`?
Answer: TGI [1]: 15.6 µM; TGI [2]: 10.2 µM; TGI [3]: 2.67 µM; TGI [4]: 3.38 µM; TGI [9]: 25 µM; TGI [5]: 3.89 µM; TGI [6]: 14.9 µM; TGI [10]: 7.52 µM; TGI [7]: 26 µM

Question: Which TGI [1] does the source give for `[N-]=[N+]=Nc1nnc(CCCCc2nnc(N=[N+]=[N-])o2)o1` here?
Answer: > 100 µM

Question: And the TGI [2]?
Answer: > 100 µM

Question: And the TGI [3]?
Answer: > 100 µM

Question: What about the TGI [4] of the same compound?
Answer: > 100 µM

Question: What about the TGI [9] of the same compound?
Answer: > 100 µM

Question: And the TGI [6]?
Answer: > 100 µM

Question: What about the TGI [10] of the same compound?
Answer: > 100 µM

Question: What about the TGI [7] of the same compound?
Answer: > 100 µM

Question: `Fc1cccc(-c2nc(-c3c[nH]c4ncccc34)cs2)c1` was tested. Which GI50 [8] did it give?
Answer: > 100 µM

Question: What about the TGI [8] of the same compound?
Answer: > 100 µM

Question: And the GI50 [2]?
Answer: > 100 µM

Question: What about the TGI [2] of the same compound?
Answer: > 100 µM

Question: What about the GI50 [3] of the same compound?
Answer: > 100 µM

Question: And the TGI [3]?
Answer: > 100 µM

Question: What about the GI50 [4] of the same compound?
Answer: > 100 µM

Question: And the TGI [4]?
Answer: > 100 µM

Question: And the GI50 [9]?
Answer: 8.34 µM

Question: And the TGI [9]?
Answer: 42.8 µM

Question: And the GI50 [5]?
Answer: 8.15 µM

Question: And the TGI [5]?
Answer: > 100 µM

Question: And the GI50 [6]?
Answer: 33.4 µM

Question: And the TGI [6]?
Answer: > 100 µM

Question: And the GI50 [10]?
Answer: 42.4 µM

Question: And the TGI [10]?
Answer: > 100 µM

Question: And the GI50 [7]?
Answer: 11.9 µM

Question: And the TGI [7]?
Answer: 94.3 µM

Question: What does the source list for `Cc1nc2sc(C(=O)Nc3cccc(Cl)c3C)c(N)c2cc1C(O)c1ccccc1` (stereo not drawn)?
Answer: GI50 [1]: 0.246 µM; TGI [1]: 26.7 µM; GI50 [8]: 0.0439 µM; TGI [8]: 24.4 µM; GI50 [2]: 0.0667 µM; TGI [2]: 1.37 µM; GI50 [3]: 0.0599 µM; TGI [3]: 10.9 µM; GI50 [4]: 0.0372 µM; TGI [4]: 5.22 µM; GI50 [5]: 0.0532 µM; TGI [5]: 12.7 µM; GI50 [6]: 0.0985 µM; TGI [6]: 12.6 µM; GI50 [10]: 0.0512 µM; TGI [10]: 35.3 µM; GI50 [7]: 0.0697 µM; TGI [7]: 33.4 µM

Question: With `O=C1Nc2cc(-c3ccc(O)cc3)ccc2/C1=C/c1ccc[nH]1` as the compound, how does the GI50 [1] read?
Answer: 0.302 µM

Question: And the TGI [1]?
Answer: > 51.3 µM

Question: What about the GI50 [8] of the same compound?
Answer: 0.416 µM

Question: And the TGI [8]?
Answer: > 25.8 µM

Question: And the GI50 [2]?
Answer: 2.78 µM

Question: And the TGI [2]?
Answer: 12.5 µM

Question: What about the GI50 [3] of the same compound?
Answer: 0.0481 µM

Question: And the TGI [3]?
Answer: 9.77 µM

Question: What about the GI50 [4] of the same compound?
Answer: 0.247 µM

Question: What about the TGI [4] of the same compound?
Answer: > 100 µM

Question: What about the GI50 [9] of the same compound?
Answer: 2.08 µM

Question: What about the TGI [9] of the same compound?
Answer: 8.35 µM

Question: And the GI50 [5]?
Answer: 0.327 µM

Question: What about the TGI [5] of the same compound?
Answer: 7.22 µM

Question: And the GI50 [6]?
Answer: 0.13 µM

Question: And the TGI [6]?
Answer: 2.06 µM

Question: What about the GI50 [10] of the same compound?
Answer: 0.524 µM

Question: And the TGI [10]?
Answer: > 100 µM

Question: How did the GI50 [1] turn out when `O=CCC(O)C(O)C(O)CO` (stereo not drawn) was run?
Answer: > 100 µM

Question: And the TGI [1]?
Answer: > 100 µM

Question: And the GI50 [8]?
Answer: > 100 µM

Question: And the TGI [8]?
Answer: > 100 µM

Question: And the GI50 [2]?
Answer: > 100 µM

Question: And the TGI [2]?
Answer: > 100 µM

Question: And the GI50 [3]?
Answer: > 100 µM

Question: And the TGI [3]?
Answer: > 100 µM

Question: And the GI50 [4]?
Answer: > 100 µM

Question: And the TGI [4]?
Answer: > 100 µM

Question: What about the GI50 [5] of the same compound?
Answer: > 100 µM

Question: What about the TGI [5] of the same compound?
Answer: > 100 µM

Question: And the GI50 [6]?
Answer: > 100 µM

Question: What about the TGI [6] of the same compound?
Answer: > 100 µM

Question: And the GI50 [10]?
Answer: > 100 µM

Question: What about the TGI [10] of the same compound?
Answer: > 100 µM

Question: What about the GI50 [7] of the same compound?
Answer: > 100 µM

Question: What about the TGI [7] of the same compound?
Answer: > 100 µM

Question: What does the source list for `CCSc1nnc(-c2ccc3ccccc3c2O)n1-c1ccccc1`?
Answer: GI50 [1]: 7.22 µM; TGI [1]: > 100 µM; GI50 [9]: 71 µM; TGI [9]: > 100 µM; GI50 [5]: 7.59 µM; TGI [5]: > 100 µM; GI50 [7]: > 100 µM; TGI [7]: > 100 µM

Question: Which results are given for `COc1cc2ccnc(-c3n[nH]c4cc(OC)c(OC)cc34)c2cc1OC`?
Answer: TGI [1]: > 100 µM; TGI [2]: > 100 µM; TGI [3]: > 100 µM; TGI [4]: > 100 µM; TGI [9]: > 100 µM; TGI [5]: > 100 µM; TGI [6]: > 100 µM; TGI [10]: > 100 µM; TGI [7]: > 100 µM
